Test results reported in patent publication US20240158425A1, “MODIFIED ADENINES” (NUCLERA LTD, priority 2021, published 2024).

How the values were obtained:
Type in all cases: physicochemical
[1] = Stability of 8-aza-adenosine and 2′-deoxyadenosine in NDS buffer, LC/MS; conditions: for Reaction in NDS buffer (products formed; deaminated nucleoside): LC/MS
Description: A solution of NDS made up from sodium nitrite, sodium acetate pH 5.5) and titrated to pH 5.5 with 10 M NaOH was obtained (2 mL).
1 mL aliquots of this solution were added to 8-aza-2′-dA (0.5 mg) and 2′-dA (0.5 mg, as a control to compare how additional N atom at 8 position of nucleobase affects reactivity NH2—C6 group with NDS) and analysed at intervals using LC/MS.

[2] = Stability in Oxime Removal Solution (1×ORS) buffer, monitored by LC/MS; conditions: 1×ORS buffer (methoxyamine), 24 h at 37 deg C.
Description: (§1) Analytical LC/MS was performed on the Agilent 1100 Series system. Nucleosides were analysed using gradient of acetonitrile in 20 mM NH4OAc, pH 4.5. The 1 M stock solution of NH4OAc, pH 4.5 was prepared by dissolving NH4OAc (g) in H2O and adjusted to pH 4.5 with acetic acid. This was further diluted with water to the concentrations required for the chromatography.
(§2) Column: Ascentis Express C18 15×4.6 mm, 5 μm; Column temperature 30° C., Flow rate 1 mL/min, UV detection 254 nm.
Stock solution of ORS buffer (2×) was prepared from methoxyamine hydrochloride (60 mg, 0.71 mmol), water (MilliQ) (200 uL), pH 5.5 sodium acetate (200 uL) and 10 M sodium hydroxide (53.4 uL) and water (1.4 mL). 2-chloro-2′-deoxyadenosine (1 mg) was dissolved in milliQ water (0.5 mL) and 2×ORS (0.5 mL) was added. The resultant solution was incubated at 37 deg C. and the stability was monitored at intervals using LC/MS. […] 2. Stability of 2-fluoro-2′-deoxyadenosine in ORS Buffer
2-fluoro-2′-deoxyadenosine (1 mg) was dissolved in milliQ water (0.5 mL) and 2×ORS (0.5 mL) was added. The resultant solution was incubated at 37 deg C. and the stability was monitored at intervals using LC/MS.

[3] = Stability of 2-halogenated 2′-deoxyadenosines and 2′-deoxyadenosine in NDS buffer (sodium nitrite, pH 5.5), LC/MS; conditions: for Reaction in NDS buffer (products formed; deaminated nucleoside): LC/MS
Description: as §1, §2
2 M sodium acetate pH 5.5 buffer was made from sodium acetate trihydrate (2.72 g) made up to 9.5 mL with water, then titrated to pH 5.5 with acetic acid, and finally made up to 10 mL. NDS buffer was made from acetate solution (3.934 mL), sodium nitrite (380 mg, 5.5 mmol) and water (3.934 mL), then adjusted to pH 5.5 with 10 M sodium hydroxide (˜1 drop required). 2-chloro-2′-deoxyadenosine (0.5 mg), 2-fluoro-2′-deoxyadenosine (0.5 mg) and 2′-deoxyadenosine (0.5 mg) as a control were respectively placed in three vials and each dissolved in 1 mL solution of NDS buffer. The stability was monitored at intervals using LC/MS.

[4] = buffer, 24 h, 0.5 mg/mL, pH 5.5
[5] = buffer, 48 h, 0.5 mg/mL, pH 5.5
[6] = buffer, 120 h, 0.5 mg/mL, pH 5.5

SMILES: Nc1ncnc2c1nnn2[C@@H]1O[C@H](CO)[C@@H](O)[C@H]1O [8-aza-A, 8-aza-adenosine]
- In (nucleoside peak area %) ([1]; 24 h): 4.592
- Remaining nucleoside, peak area % ([1]; 24 h): 98.65 peak area %
- In (nucleoside peak area %) ([1]; 96 h): 4.538
- Remaining nucleoside, peak area % ([1]; 96 h): 93.49 peak area %
- In (nucleoside peak area %) ([1]; 120 h): 4.519
- Remaining nucleoside, peak area % ([1]; 120 h): 91.74 peak area %
- In (nucleoside peak area %) ([1]; 146 h): 4.5
- Remaining nucleoside, peak area % ([1]; 146 h): 90 peak area %
- Reaction in NDS buffer (products formed; deaminated nucleoside) [1]: react in the NDS buffer giving rise to 1 product
- Deamination in NDS buffer, times slower than 2′-dA ([1]; same conditions as 2′-dA): 3.2 ×

SMILES: Nc1nc(Cl)nc2c1ncn2[C@H]1C[C@H](O)[C@@H](CO)O1 [2-Cl-dA, 2-chloro-2′-deoxyadenosine]
- Stability in 1×ORS buffer (formation of products) [2]: did not lead to any products
- In (remaining nucleoside) ([3]; NDS buffer, 24 h): 4.599
- Remaining nucleoside ([3]; NDS buffer, 24 h): 99.42%
- In (remaining nucleoside) ([3]; NDS buffer, 48 h): 4.592
- Remaining nucleoside ([3]; NDS buffer, 48 h): 98.66%
- In (remaining nucleoside) ([3]; NDS buffer, 120 h): 4.57
- Remaining nucleoside ([3]; NDS buffer, 120 h): 96.54%
- Reaction in NDS buffer (products formed; deaminated nucleoside) ([3]; NDS buffer): react in the NDS buffer giving rise to 1 product
- Deamination in NDS buffer, times slower than 2′-dA ([3]; NDS buffer, same conditions as 2′-dA): 5.5 ×

SMILES: Nc1ncnc2c1ncn2[C@H]1C[C@H](O)[C@@H](CO)O1 [dA, 2′-deoxyadenosine]
- Reaction in NDS buffer (products formed; deaminated nucleoside) ([3]; NDS buffer): react in the NDS buffer giving rise to 1 product
- In (remaining nucleoside) [3, 4]: 4.571
- Remaining nucleoside [3, 4]: 96.66%
- In (remaining nucleoside) [3, 5]: 4.531
- Remaining nucleoside [3, 5]: 92.85%
- In (remaining nucleoside) [3, 6]: 4.416
- Remaining nucleoside [3, 6]: 82.77%
- In (nucleoside peak area %) ([1]; 24 h): 4.545
- Remaining nucleoside, peak area % ([1]; 24 h): 94.15 peak area %
- In (nucleoside peak area %) ([1]; 96 h): 4.352
- Remaining nucleoside, peak area % ([1]; 96 h): 77.6 peak area %
- In (nucleoside peak area %) ([1]; 120 h): 4.29
- Remaining nucleoside, peak area % ([1]; 120 h): 73 peak area %
- In (nucleoside peak area %) ([1]; 146 h): 4.248
- Remaining nucleoside, peak area % ([1]; 146 h): 70 peak area %
- Reaction in NDS buffer (products formed; deaminated nucleoside) [1]: react in the NDS buffer giving rise to 1 product
